Values after ≈ are worked out from the molar mass of the structure shown.
System: Bipolaris oryzae
Test: Inhibitory concentration against hyphal germination of Cochlibolus miyabeanus
Format: functional, organism-based

**Q.** Which IC50 does the source give for `Cc1cc2cc(O)c3c(O)cccc3c2oc1=O` here?
**A.** 100 µg/mL (≈ 413 µM)

Reference: ChEMBL document CHEMBL1141040, “Isolation, structure elucidation, preparation, and biological properties of neolambertellin” (Bioorg Med Chem Lett, 2005)
